Laboratory results taken from article PMC6627609, “Targeting Quorum Sensing: High-Throughput Screening to Identify Novel LsrK Inhibitors” (International Journal of Molecular Sciences, 2019).
Where a name gives a salt, the structure may show the parent alone.

target: LsrK (Salmonella typhimurium, UniProt Q8ZKQ6); experiment: biochemical; format: biochemical, S. typhimurium; conditions: not given
Sequence (Q8ZKQ6 whole entry): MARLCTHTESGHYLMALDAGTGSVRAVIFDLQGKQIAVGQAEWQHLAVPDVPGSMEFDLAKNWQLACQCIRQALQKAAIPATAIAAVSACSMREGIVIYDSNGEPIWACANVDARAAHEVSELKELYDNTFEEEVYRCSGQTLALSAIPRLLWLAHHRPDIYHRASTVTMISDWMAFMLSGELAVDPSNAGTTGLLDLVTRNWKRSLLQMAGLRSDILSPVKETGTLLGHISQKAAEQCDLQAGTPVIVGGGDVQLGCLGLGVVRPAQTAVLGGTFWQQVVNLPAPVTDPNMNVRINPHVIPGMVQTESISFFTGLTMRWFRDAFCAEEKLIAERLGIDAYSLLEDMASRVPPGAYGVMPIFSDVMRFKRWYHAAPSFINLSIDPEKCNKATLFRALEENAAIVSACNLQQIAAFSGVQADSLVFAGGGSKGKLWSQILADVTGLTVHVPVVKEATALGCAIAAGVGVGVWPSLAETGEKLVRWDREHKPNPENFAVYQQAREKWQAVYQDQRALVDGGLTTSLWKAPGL

SMILES	inhibition at 50 µM [%]
CCCCN1CCCCC1C(=O)Nc1c(C)cccc1C (centres unmarked) [BUPIVACAINE HYDROCHLORIDE]	2
CCCCN(CCCC)CCCOC(=O)c1ccc(N)cc1 [BUTACAINE]	3
CC(=O)OC[C@@]1(O)C[C@@]23CC[C@@H]4c5ccoc5CC[C@@]4(C)[C@@H]2CC[C@@H]1C3 [CAFESTOL ACETATE]	1
CC[C@@]1(O)C(=O)OCc2c1cc1n(c2=O)Cc2cc3ccccc3nc2-1 [CAMPTOTHECIN]	1
C[C@]12CCC(=O)C=C1C=C[C@@H]1[C@@H]2CC[C@@]2(C)[C@H]1CC[C@@]21CCC(=O)O1 [CANRENONE]	1
C[C@@]12C(=O)OC(=O)[C@]1(C)[C@H]1CC[C@@H]2O1 [CANTHARIDIN]	4
COc1cc(CNC(=O)CCCC/C=C/C(C)C)ccc1O [CAPSAICIN]	2
CC1=C(/C=C/C(C)=C/C=C/C(C)=C/C=C/C=C(C)/C=C/C=C(C)/C=C/C(=O)[C@]2(C)C[C@@H](O)CC2(C)C)C(C)(C)C[C@H](O)C1 [CAPSANTHIN]	1
COC(=O)C[C@H]1C(C)(C)C(=O)[C@@H]2CC3C4=CC(=O)O[C@@H](c5ccoc5)[C@]4(C)CC[C@@H]3[C@@]1(C)C2=O (some centres unmarked) [CARAPIN]	2
C[N+](C)(C)CCOC(N)=O [CARBACHOL]	1
COC(=O)N/N=C/c1c[n+]([O-])c2ccccc2[n+]1[O-] [CARBADOX]	3
C[C@@](Cc1ccc(O)c(O)c1)(NN)C(=O)O [CARBIDOPA]	0
Cc1c(C(=O)O)c(O)cc2c1C(=O)c1c(O)c([C@@H]3O[C@H](CO)[C@@H](O)[C@H](O)[C@H]3O)c(O)c(O)c1C2=O [CARMINIC ACID]	6
O=NN(CCCl)C(=O)NCCCl [CARMUSTINE]	10
CC(C)c1cc2c(c(O)c1O)[C@@]1(C(=O)O)CCCC(C)(C)[C@@H]1CC2 [CARNOSIC ACID]	2
NCCC(=O)N[C@@H](Cc1cnc[nH]1)C(=O)O [CARNOSINE]	0
CC(C(=O)O)c1ccc2c(c1)[nH]c1ccc(Cl)cc12 (centres unmarked) [CARPROFEN]	1
C[C@@H]1CC[C@H]2C(C)(C)[C@H]3C[C@@]12CC[C@@]3(C)O [CEDROL]	13
N[C@@H](C(=O)N[C@@H]1C(=O)N2C(C(=O)O)=C(Cl)CS[C@H]12)c1ccccc1 [CEFACLOR]	24
CC1=C(C(=O)O)N2C(=O)[C@@H](NC(=O)[C@H](N)c3ccc(O)cc3)[C@H]2SC1 [CEFADROXIL]	1
Cn1nnnc1SCC1=C(C(=O)O)N2C(=O)[C@@H](NC(=O)[C@H](OC=O)c3ccccc3)[C@H]2SC1 [CEFAMANDOLE NAFATE]	1
Cn1nnnc1SCC1=C(C(=O)O)N2C(=O)[C@@H](NC(=O)[C@H](O)c3ccccc3)[C@H]2SC1 [CEFAMANDOLE SODIUM]	15
Cc1nnc(SCC2=C(C(=O)O)N3C(=O)[C@@H](NC(=O)Cn4cnnn4)[C@H]3SC2)s1 [CEFAZOLIN SODIUM]	1

same assay, conditions: 50 µM

SMILES	Inhibition (%)
CCOc1nc2cccc(C(=O)OC(C)OC(=O)OC3CCCCC3)c2n1Cc1ccc(-c2ccccc2-c2nn[nH]n2)cc1 (centres unmarked) [CANDESARTAN CILEXTIL, reference compound]	101
C[C@]12CCC(=O)C=C1C=C[C@@H]1[C@@H]2CC[C@@]2(C)[C@H]1CC[C@@]2(O)CCC(=O)[O-].[K+] [CANRENOIC ACID. POTASSIUM SALT]	0
CC1=C(/C=C/C(C)=C/C=C/C(C)=C/C=C/C=C(C)/C=C/C=C(C)/C=C/C2=C(C)C(=O)CCC2(C)C)C(C)(C)CCC1=O [CANTHAXANTHIN (euglenanone), CANTHAXANTHIN]	2
CCCCCCCCCCCCCCC(C(=O)O)C(O)(CC(=O)OC)C(=O)O (centres unmarked) [CAPERATIC ACID]	8
C[N+](C)(C)CC(O)CC(=O)O.[Cl-] (stereo not drawn) [CARNITINE (dl) HYDROCHLORIDE]	3

same assay, conditions: read-out: IC50 against LsrK

SMILES	IC50 [µM]
CCOc1nc2cccc(C(=O)OC(C)OC(=O)OC3CCCCC3)c2n1Cc1ccc(-c2ccccc2-c2nn[nH]n2)cc1 (centres unmarked) [CANDESARTAN CILEXTIL, reference compound]	14
